According to patent US11873287B2, “Piperidine-2,6-dione derivatives and ulcerative colitis treating” (TIANJIN HEMAY PHARMACEUTICAL SCI-TECH CO., LTD, priority 2016, dated 2024):
Values joined by “and” are separate entries in the source; they are usually repeats but may differ in a detail not shown here. Identical values can stand only once.

Tested on: ICR mice
Assay: Acute toxicity experiment of single oral administration in mice
Format: in vivo
Experimental: The mice were fasted one day before the experiment. On the day of the experiment, 6 mice (ICR mice, body weight of 19-21 g, three females and three males) were selected in each experiment group. First of all, one female and one male were selected to orally give 1000 mg/Kg, and observed for 5-10 minutes. If there were no obvious side effects, the remaining 4 animals were orally given the same dose, and observed for 10-15 minutes. If no animal died, the animals were placed in a box to balancedly feed for 7 days. The state was observed and the body weight was recorded daily.
Observation Indexes within 0-15 Minutes After Administration
Activity: restlessness, hyperactivity
Nervous system response: tremor, spasm, convulsion, ataxia, posture abnormality, etc.
Autonomic nerve: exophthalmos, salivation, tears, urination (hematuria), diarrhea, piloerection, breathing, etc.
Observation Indexes Over 7 Days
State of Animal: lethargy, hyperactivity, excitement, hair loss, diarrhea, abnormal behavior, death, etc.

[1] = Day 1, 1000 mg/Kg single oral dose
[2] = Day 2, 1000 mg/Kg single oral dose
[3] = Day 3, 1000 mg/Kg single oral dose
[4] = Day 4, 1000 mg/Kg single oral dose
[5] = Day 5, 1000 mg/Kg single oral dose
[6] = Day 6, 1000 mg/Kg single oral dose
[7] = Day 7, 1000 mg/Kg single oral dose
[8] = Female, 1000 mg/Kg single oral dose
[9] = Male, 1000 mg/Kg single oral dose
[10] = Day 1, 1000 mg/Kg single oral dose, 1000 mg/kg
[11] = Day 2, 1000 mg/Kg single oral dose, 1000 mg/kg
[12] = Day 3, 1000 mg/Kg single oral dose, 1000 mg/kg
[13] = Day 4, 1000 mg/Kg single oral dose, 1000 mg/kg
[14] = Day 5, 1000 mg/Kg single oral dose, 1000 mg/kg
[15] = Day 6, 1000 mg/Kg single oral dose, 1000 mg/kg
[16] = Day 7, 1000 mg/Kg single oral dose, 1000 mg/kg

| SMILES | Daily Body Weight of Tested Female Mice (Mean ± SD) [1] [g] | Daily Body Weight of Tested Male Mice (Mean ± SD) [1] [g] | Daily Body Weight of Tested Female Mice (Mean ± SD) [2] [g] | Daily Body Weight of Tested Male Mice (Mean ± SD) [2] [g] | Daily Body Weight of Tested Female Mice (Mean ± SD) [3] [g] | Daily Body Weight of Tested Male Mice (Mean ± SD) [3] [g] | Daily Body Weight of Tested Female Mice (Mean ± SD) [4] [g] | Daily Body Weight of Tested Male Mice (Mean ± SD) [4] [g] | Daily Body Weight of Tested Female Mice (Mean ± SD) [5] [g] | Daily Body Weight of Tested Male Mice (Mean ± SD) [5] [g] | Daily Body Weight of Tested Female Mice (Mean ± SD) [6] [g] | Daily Body Weight of Tested Male Mice (Mean ± SD) [6] [g] | Daily Body Weight of Tested Female Mice (Mean ± SD) [7] [g] | Daily Body Weight of Tested Male Mice (Mean ± SD) [7] [g] | Summary of toxic response of tested animals in 7 Days [8] | Summary of toxic response of tested animals in 7 Days [9] | also measured |
| --- | --- | --- | --- | --- | --- | --- | --- | --- | --- | --- | --- | --- | --- | --- | --- | --- | --- |
| COCCN1C(=O)CCC(N2C(=O)c3ccc(F)c(N)c3C2=O)C1=O (centres unmarked) [Example 9, 4-amino-S-fluoro-2-(1-(2-methoxyethyl)-2,6-dioxopiperidin-3-yl)isoindolin-1,3-dione] |  |  |  |  |  |  |  |  |  |  |  |  |  |  |  |  | Summary of toxic response of tested animals in 7 Days (mouse, in vivo, po, 1000 mg/kg): Abnormality was not observed in 7 days of the test |
| COCCN1C(=O)CCC(N2C(=O)c3cccc(NC(C)=O)c3C2=O)C1=O (centres unmarked) [Example 1, 4-acetylamino-2-(1-(2-methoxyethyl)-2,6-dioxopiperidin-3-yl)isoindolin-1,3-dione] | 18.5 ± 0.1 | 20.1 ± 1.4 | 22.8 ± 0.3 | 23.8 ± 1.4 | 23.2 ± 0.7 | 24.9 ± 1.0 | 24.0 ± 0.2 | 26.3 ± 1.2 | 25.3 ± 1.6 | 27.7 ± 1.3 | 25.7 ± 1.6 | 29.2 ± 1.4 | 27.1 ± 1.1 | 29.4 ± 1.4 |  |  |  |
| COCCCN1C(=O)CCC(N2C(=O)c3ccc(N)cc3C2=O)C1=O (centres unmarked) [Example 18, 5-amino-2-(1-(3-methoxypropyl)-2,6-dioxopiperidin-3-yl)isoindolin-1,3-dione] | 18.4 ± 0.7 | 18.2 ± 0.4 | 22.5 ± 0.8 | 23.0 ± 0.7 | 23.8 ± 1.1 | 24.1 ± 0.4 | 24.8 ± 1.5 | 25.6 ± 0.8 | 24.8 ± 0.6 | 28.1 ± 1.1 | 25.4 ± 0.7 | 29.0 ± 1.4 | 25.2 ± 1.1 | 29.0 ± 1.0 |  |  |  |
| CSCCN1C(=O)CCC(N2C(=O)c3cccc(N)c3C2=O)C1=O (centres unmarked) [Example 11, 4-amino-2-(1-(2-methylthioethyl)-2,6-dioxopiperidin-3-yl)isoindolin-1,3-dione] | 18.1 ± 0.2 | 19.5 ± 0.6 | 21.7 ± 0.2 | 23.7 ± 0.8 | 22.4 ± 0.1 | 25.4 ± 0.4 | 22.4 ± 0.1 | 25.4 ± 0.4 | 23.5 ± 0.4 | 27.0 ± 0.5 | 23.2 ± 0.8 | 29.0 ± 0.7 | 23.2 ± 0.9 | 29.8 ± 1.0 | Decrease of activity was observed in one animal after | Abnormality was not observed in 7 days of the test |  |
| COCCN1C(=O)CCC(N2C(=O)c3c(N)ccc(O)c3C2=O)C1=O (centres unmarked) [Example 10, 4-amino-7-hydroxy-2-(1-(2-methoxyethyl)-2,6-dioxopiperidin-3-yl)isoindolin-1,3-dione] | 19.2 ± 0.5 | 19.4 ± 0.3 | 21.9 ± 0.4 | 24.4 ± 0.6 | 22.4 ± 0.2 | 25.5 ± 0.9 | 22.4 ± 0.2 | 25.5 ± 0.9 | 22.9 ± 0.6 | 26.8 ± 0.9 | 24.1 ± 1.5 | 29.2 ± 0.7 | 24.2 ± 1.8 | 30.3 ± 0.7 | Decrease of activity was observed in all the animals within 30 | Decrease of activity was observed in all the animals within 30 |  |
| COCCN1C(=O)CCC(N2C(=O)c3cccc(N(C)C)c3C2=O)C1=O (centres unmarked) [Example 3, 4-dimethylamino-2-(1-(2-methoxyethyl)-2,6-dioxopiperidin-3-yl)isoindolin-1,3-dione] |  |  |  |  |  |  |  |  |  |  |  |  |  |  | Abnormality was not observed in 7 days of the test | Abnormality was not observed in 7 days of the test | Daily Body Weight of Tested Female Mice (Mean ± SD) [10]: 18.3 ± 0.4 g and 18.8 ± 0.4 g; Daily Body Weight of Tested Male Mice (Mean ± SD) [10]: 18.8 ± 0.7 g and 18.0 ± 0.2 g; Daily Body Weight of Tested Female Mice (Mean ± SD) [11]: 21.7 ± 0.2 g and 22.1 ± 1.2 g; Daily Body Weight of Tested Male Mice (Mean ± SD) [11]: 23.3 ± 0.1 g and 22.9 ± 0.3 g; Daily Body Weight of Tested Female Mice (Mean ± SD) [12]: 22.3 ± 0.2 g and 22.7 ± 0.8 g; Daily Body Weight of Tested Male Mice (Mean ± SD) [12]: 24.3 ± 0.1 g and 24.3 ± 0.9 g; Daily Body Weight of Tested Female Mice (Mean ± SD) [13]: 22.6 ± 0.8 g and 23.0 ± 1.4 g; Daily Body Weight of Tested Male Mice (Mean ± SD) [13]: 25.6 ± 0.7 g and 25.2 ± 1.1 g; Daily Body Weight of Tested Female Mice (Mean ± SD) [14]: 23.0 ± 1.4 g and 23.7 ± 1.9 g; Daily Body Weight of Tested Male Mice (Mean ± SD) [14]: 26.9 ± 0.8 g and 27.0 ± 1.3 g; Daily Body Weight of Tested Female Mice (Mean ± SD) [15]: 22.6 ± 1.3 g and 24.1 ± 1.2 g; Daily Body Weight of Tested Male Mice (Mean ± SD) [15]: 27.9 ± 0.9 g and 28.2 ± 1.9 g; Daily Body Weight of Tested Female Mice (Mean ± SD) [16]: 22.7 ± 0.4 g and 24.4 ± 1.8 g; Daily Body Weight of Tested Male Mice (Mean ± SD) [16]: 28.6 ± 0.4 g and 28.5 ± 2.7 g |
